Columns and labels:
[1] = Buffer (saline) stability; format: physicochemical
Protocol: (§1) 12M11 (2 μM final concentration) was incubated with murine plasma and saline for 0-1440 minutes. Reactions were quenched with 200 μl (1:2) of methanol containing 0.1% formic acid and 200 ng/ml IS (IS final conc.=100 ng/mL). Samples were vortexed for 15 seconds, incubated at RT for 10 minutes and spun for 5 minutes at 13.2K rpm. Supernatant ([…]) was then transferred to an eppendorf tube and spun in a table top, chilled centrifuge for 5 minutes at 13.2K rpm. Supernatant (800 μL) was transferred to an HPLC vial (w/out insert). Analyzed by Qtrap 3200 mass spectrometer. These methods were used data obtained in the FIGS. 22C and 22F.

[2] = In vitro plasma half-life; format: in vitro ADME; conditions: mouse, plasma, murine plasma, read-out: Plasma T1/2 (converted)
Protocol: as §1

Murine S9 half-life = format: in vitro ADME; conditions: mouse, S9 fraction; murine S9, Phase I cofactors; read-out: S9 T1/2
Protocol: 22D. […] (2 mM in DMSO) was incubated with Murine S9 (Lot KWB) fraction and Phase I (NADPH Regenerating System) cofactors for 0-240 minutes. Reactions were quenched with 1 mL (1:1) of methanol containing 0.2% formic acid and 100 ng/ml IS (IS final conc.=50 ng/mL). Samples were vortexed for 15 seconds, incubated at RT for 10 minutes and spun for 5 minutes at 2400 rpm. Supernatant (1 mL) was then transferred to an eppendorf tube and spun in a table top, chilled centrifuge for 5 minutes at 13.2K rpm. Supernatant (800 uL) was transferred to an HPLC vial (w/out insert). Analyzed by Qtrap 3200 mass spectrometer. These methods were used data obtained in the FIGS. 22A and 22D.

Mut6 [3] = assay: Cytotox testing (CellTiter-Glo ATP assay) in Mut6 cells; format: cell-based, mouse; conditions: CellTiter-Glo; for EC50: Mus musculus, 96 h, Mut6 cells, 4 days, read-out: Activity in Mut6 [EC50]
Protocol: (§2) Mut6 tumor cells were cultured in DMEM/F12 media supplemented by EGF (10 ng/mL), basic FGF (10 ng/mL), heparin (4 ug/mL), glucose (total 21 mM), NaHCO3 (113 μg/mL), Hepes (119 μg/mL), glutamine (2 mM), sodium pyruvate (1 mM), N2 supplement (ThermoFisher Gibco 17502-048, 100×, at 100-fold dilution), B27 supplement (ThermoFisher Gibco 12587-010, 50×, at 100-fold dilution), and penicillin/streptomycin (ThermoFisher, final 1%). Cells were maintained in Ultra-low attachment plate (Corning) as sphere-forming cells. For ATP assays and protein/RNA isolation, cells were plated into 96-well plates or 6-well plated that were coated with poly-lysine (Sigma P6407, 10 μg/mL in PBS, 4 hr at 37° C.) and laminin (ThermoFisher 23017015, ˜5 mg/L in PBS, overnight at 37° C.). MEFs and Astrocytes were cultured in DMEM supplemented with 10% FBS and 1% Penicillin/Streptomycin.
2,000 cells were plated into each well of 96-well plates. About 3 hours later, cells were treated by 12M11, at 800-fold dilution (4 mM stock was diluted into 5 μM final concentration). […] CellTiter-Glo assay (Promega) was performed according to manufacturer's instructions, by adding 20 μL of reagent into each well. Luminescence signal was detected by the PolarStar plate reader (BMG Labtech). Experiments were performed in quadruplicate, and results are presented with mean average −/+ standard deviation. EC505 were calculated by GraphPad Prism6 software.
The compounds described herein were tested using a cell-based cytotoxicity assay against neuronal stem cells in Mut6, which is a mouse glioblastoma model cell line.

[4] = system: mitochondrial membrane potential; assay: TMRE mitochondrial membrane potential staining in Mut6 cells; format: cell-based, mouse; conditions: within 30 min
Protocol: TMRE mitochondrial membrane potential assay kit was purchased from Abcam (113852) and the assay was performed according to the manufacturer's protocol. Briefly, cells were pre-incubated with 1 μM 12M11 (10 min or 18 hrs) or 100 nM FCCP (10 min) and incubated for additional 20 min with 200 nM TMRE before pictures were taken.

astrocytes = assay: Cytotox testing (CellTiter-Glo) in astrocytes; format: cell-based
Protocol: as §2
2,000 cells were plated into each well of 96-well plates. About 3 hours later, cells were treated by 12M11, at 800-fold dilution (4 mM stock was diluted into 5 μM final concentration). Cells were further incubated for 4 days. CellTiter-Glo assay (Promega) was performed according to manufacturer's instructions, by adding 20 μL of reagent into each well. Luminescence signal was detected by the PolarStar plate reader (BMG Labtech). Experiments were performed in quadruplicate, and results are presented with mean average −/+ standard deviation. EC505 were calculated by GraphPad Prism6 software.

MEF = assay: Change in ATP levels in MEF cells; format: cell-based, mouse; conditions: 2-6 hr
Protocol: (§3) Mut6 tumor cells or MEFs were plated into 96-well plates. One day later, Oligomyin (2 μM), Rotenone (200 nM), or 12M11 (1 μM) were added into each well and then ATP levels were measured by Cell-Titer Glo (Promega) after 2 hr, 4 hr, or 6 hr incubation. Each data is mean of six replicates with ± standard deviation.

Mut6 [5] = assay: Change in ATP levels in Mut6 cells; format: cell-based, mouse; conditions: Mut6, 2-6 hr
Protocol: as §3

Phospho-S6 = assay: p-S6 western blot in Mut6 cells; format: cell-based, mouse
Protocol: (§4) Mut6 tumor cells and MEFs were treated by DMSO or 1 μM 12M11 for the indicated times. Cell lysate was prepared by RIPA buffer with phosphatase inhibitor (Thermo) and protease inhibitor (Roche). Antibodies are purchased from Santa Cruz (ATF4), Cell Signaling (pS6, S6, AMPK, and pAMPK), and Millipore (Gapdh).

ATF4 = ATF4 western blot in Mut6 cells; format: cell-based, mouse
Protocol: as §4

Row | Structure (SMILES) | Buffer Stability [1] | half-life at 2 μM [2] | half-life (Murine S9 half-life) | EC50 (Mut6 [3]) | oxidative phosphorylation / mitochondrial membrane potential by TMRE staining [4] | activity against astrocytes (astrocytes) | activity against Mut6 cells (Mut6 [3]) | ATP levels (% change from basal) (MEF) | ATP levels (% change from basal) (Mut6 [5]) | Phospho-S6 protein level (Phospho-S6) | ATF4 protein level (ATF4)
1 | CC(C)[C@@H]1CC[C@@H](C)CC1OC(=O)Cn1c(-c2ccc(O)cc2)[n+](C)c2ccccc21.[I-] (stereo partly drawn) | 114% | 0.163 h | 2.22 h | 1000 to 5000 nM | – | – | – | – | – | – | –
2 | CC(C)[C@@H]1CC[C@@H](C)CC1OC(=O)Cn1c(-c2ccc(N=[N+]=[N-])cc2)[n+](C)c2ccccc21.[I-] (stereo partly drawn) | 96% | 0.433 h | 0.433 h | 100 to 1000 nM | – | – | – | – | – | – | –
3 | CC(C)[C@@H]1CC[C@@H](C)CC1OC(=O)Cn1c(-c2ccccc2[N+](=O)[O-])[n+](C)c2ccccc21.[I-] (stereo partly drawn) | 100% | 0.783 h | > 4 h | 100 to 1000 nM | – | – | – | – | – | – | –
4 | CC(C)[C@@H]1CC[C@@H](C)CC1OC(=O)Cn1c(-c2cccc([N+](=O)[O-])c2)[n+](C)c2ccccc21.[I-] (stereo partly drawn) | 133% | 5.5 h | > 4 h | 1000 to 5000 nM | – | – | – | – | – | – | –
5 | CC(C)[C@@H]1CC[C@@H](C)CC1OC(=O)Cn1c(-c2ccc([N+](=O)[O-])cc2)[n+](C)c2ccccc21.[I-] (stereo partly drawn) | 100% | 1.5 h | 2.32 h | 1000 to 5000 nM | – | – | – | – | – | – | –
6 | CC(C)[C@@H]1CC[C@@H](C)CC1OC(=O)Cn1c(-c2cccc(C(F)(F)F)c2)[n+](C)c2ccccc21.[I-] (stereo partly drawn) | 100% | 4 h | > 4 h | 100 to 1000 nM | – | – | – | – | – | – | –
7 | N#CC(C#N)=NNc1ccc(OC(F)(F)F)cc1 [FCCP, reference compound] | – | – | – | – | impairs oxidative phosphorylation | – | – | – | – | – | –
8 | C[C@@H]1C[C@@H]([C@H](O)CC2CC(=O)NC(=O)C2)C(=O)[C@@H](C)C1 [cycloheximide, reference compound] | – | – | – | – | – | sensitive | sensitive | – | – | – | –
9 | CC[C@H]1/C=C/C=C/C[C@@H](C)[C@H](O)[C@@](C)(O)C(=O)[C@@H](C)[C@H](O)[C@@H](C)C(=O)[C@@H](C)[C@H](O)[C@@H](C)/C=C/C(=O)O[C@@H]2[C@H](C)[C@H](CC1)O[C@]1(CC[C@H](C)[C@H](C[C@@H](C)O)O1)[C@H]2C [oligomycin] | – | – | – | – | – | sensitive | sensitive | increase | decrease significantly | suppression | induction
10 | C=C(C)[C@H]1Cc2c(ccc3c2O[C@@H]2COc4cc(OC)c(OC)cc4[C@@H]2C3=O)O1 [rotenone] | – | – | – | – | – | sensitive | sensitive | increase | decrease significantly | suppression | induction

— patent publication US20180354909A1, “SUBSTITUTED BENZIMIDAZOLIUM, PYRIDO-IMIDAZOLIUM, OR PYRAZINO-IMIDAZOLIUM COMPOUNDS AS CHEMOTHERAPEUTICS” (The Board of Regents of the University of Texas System, priority 2015, published 2018)
